Laboratory results reported in patent US20210361600A1, “METHODS FOR INDUCING CHONDROGENESIS” (THE SCRIPPS RESEARCH INSTITUTE, priority 2017, published 2021).

What was measured:
proteoglycan 4 (PRG4) = assay: In vitro chondrogenesis, transcript level by qPCR; assay type: cell-based, human; conditions: for Induction of PRG4: 7-day treatment
Description: (§1) The RNA was exacted using RNeasy kit following the manufacturer's protocol. cDNA was synthesized using SuperScript III first strand synthesis kit and the transcript levels of proteoglycan 4 (PRG4), sex-determining region Y-Box 9 ([…]) and cartilage-oligo matrix protein (COMP) were determined using Taqman gene expression assays (probes) from ThermoFisher.
(§2) ΔΔCT method was applied to calculate the relative abundance of each gene using ([…] as normalizing control using ViiA 7 RUO software (ThermoFisher). The abundance of each gene of each sample was expressed as fold over DMSO-treated controls. n=3. Dose response for each marker gene was analyzed using GraphPad Prism 7 software.

[1] = system: cartilage-oligo matrix protein (COMP); assay: In vitro chondrogenesis, transcript level by qPCR; assay type: cell-based, human; conditions: for Induction of COMP: 7-day treatment
Description: as §1, §2

SOX9 = assay: In vitro chondrogenesis, transcript level by qPCR; assay type: cell-based, human; conditions: for Induction of SOX9: 7-day treatment
Description: as §1, §2

Human MSCs = assay: Human chondrocyte differentiation assay; assay type: cell-based; conditions: 7 days; type II collagen, Sox9 and COMP immunostaining
Description: Human MSCs (50,000) were plated into each well of a 96-well plate and cultured overnight. […] The cells were fixed with 10% formalin solution at room temperature for 10 min, and immunostained using antibodies specific for type II collagen (Abcam), Sox9 (Santa Cruz) and cartilage oligomeric matrix protein (COMP, Santa Cruz), and fluorescently labeled secondary antibodies (Li-Cor). The total intensity of the staining was measured using Oddyssey CLx imaging system (Li-Cor). Vehicle (DMSO) was used as control to determine the basal level of chondrocyte differentiation. The result is shown in Table 1 [A: >50% increase in staining intensity compared to vehicle control; B: 30-50% increase in staining intensity compared to vehicle control].

[2] = Intravenous acute toxicity study in Crl:CD(SD) rat (toxicokinetics); assay type: in vivo; conditions: for AUC(0-t) / Cmax / half-life: Crl:CD(SD), rat, plasma; for Tlast: median
Description: For toxicokinetic evaluation, an additional 3 rats/sex/group were added for the 1 or 2.4 mg/kg dose groups. Toxicokinetic parameters were determined, where feasible, by non-compartmental analysis.

in vivo [3] = conditions: male, Crl:CD(SD), rat, 2.1 ug
in vivo [4] = conditions: Crl:CD(SD), rat
[5] = female rats, single IV 1 mg/kg, mean
[6] = female rats, single IV 2.4 mg/kg, mean
[7] = male rats, single IV 1 mg/kg, mean
[8] = male rats, single IV 2.4 mg/kg, mean

**Q.** For COCCc1ccc(NC(=O)c2ccccc2NS(C)(=O)=O)cc1 [Compound A, N-(4-(2-methoxyethyl)phenyl)-2-(methylsulfonamido)benzamide], which “Induction of PRG4” value (proteoglycan 4 (PRG4); 0.457 nM) is on record?
**A.** The value was 1.082 ± 0.493 fold increase.

**Q.** And the “Induction of PRG4” value (proteoglycan 4 (PRG4); 1.37 nM)?
**A.** The value was 0.582 ± 0.513 fold increase.

**Q.** What about the “Induction of PRG4” value (proteoglycan 4 (PRG4); 4.11 nM) of the same molecule?
**A.** The value was 1.795 ± 0.561 fold increase.

**Q.** And the “Induction of PRG4” value (proteoglycan 4 (PRG4); 12.3 nM)?
**A.** The value was 2.226 ± 0.378 fold increase.

**Q.** And the “Induction of PRG4” value (proteoglycan 4 (PRG4); 37.0 nM)?
**A.** Its value is 1.204 ± 0.360 fold increase.

**Q.** What about the “Induction of PRG4” value (proteoglycan 4 (PRG4); 111 nM) of the same molecule?
**A.** Its value is 1.024 ± 0.700 fold increase.

**Q.** What about the “Induction of PRG4” value (proteoglycan 4 (PRG4); 333 nM) of the same molecule?
**A.** The value was 2.22 ± 0.960 fold increase.

**Q.** What about the “Induction of PRG4” value (proteoglycan 4 (PRG4); 1000 nM) of the same molecule?
**A.** Its value is 2.134 ± 0.785 fold increase.

**Q.** What about the EC50 (proteoglycan 4 (PRG4); 168 h, primary human MSCs, 7 days, read-out: EC50 (PRG4 induction)) of the same molecule?
**A.** The EC50 was ~3.9 nM.

**Q.** What about the “Induction of COMP” value ([1]; 0.457 nM) of the same molecule?
**A.** Its value is 1.005 ± 0.100 fold increase.

**Q.** What about the “Induction of COMP” value ([1]; 1.37 nM) of the same molecule?
**A.** Its value is 0.776 ± 0.107 fold increase.

**Q.** And the “Induction of COMP” value ([1]; 4.11 nM)?
**A.** Its value is 1.322 ± 0.804 fold increase.

**Q.** And the “Induction of COMP” value ([1]; 12.3 nM)?
**A.** Its value is 2.942 ± 0.575 fold increase.

**Q.** What about the “Induction of COMP” value ([1]; 37.0 nM) of the same molecule?
**A.** Its value is 1.356 ± 0.590 fold increase.

**Q.** What about the “Induction of COMP” value ([1]; 111 nM) of the same molecule?
**A.** Its value is 0.706 ± 0.193 fold increase.

**Q.** What about the “Induction of COMP” value ([1]; 333 nM) of the same molecule?
**A.** Its value is 1.896 ± 0.187 fold increase.

**Q.** And the “Induction of COMP” value ([1]; 1000 nM)?
**A.** The value was 3.121 ± 0.709 fold increase.

**Q.** What about the EC50 ([1]; 168 h, primary human MSCs, 7 days, read-out: EC50 (COMP induction)) of the same molecule?
**A.** The EC50 was ~4.5 nM.

**Q.** And the “Induction of SOX9” value (SOX9; 0.457 nM)?
**A.** The value was 1.022 ± 0.231 fold increase.

**Q.** What about the “Induction of SOX9” value (SOX9; 1.37 nM) of the same molecule?
**A.** Its value is 1.002 ± 0.260 fold increase.

**Q.** And the “Induction of SOX9” value (SOX9; 4.11 nM)?
**A.** Its value is 3.296 ± 0.719 fold increase.

**Q.** What about the “Induction of SOX9” value (SOX9; 12.3 nM) of the same molecule?
**A.** The value was 2.505 ± 0.242 fold increase.

**Q.** What about the “Induction of SOX9” value (SOX9; 37.0 nM) of the same molecule?
**A.** The value was 1.768 ± 0.264 fold increase.

**Q.** And the “Induction of SOX9” value (SOX9; 111 nM)?
**A.** Its value is 1.977 ± 0.721 fold increase.

**Q.** What about the “Induction of SOX9” value (SOX9; 333 nM) of the same molecule?
**A.** Its value is 4.193 ± 0.765 fold increase.

**Q.** And the EC50 (SOX9; 168 h, primary human MSCs, 7 days, read-out: EC50 (SOX9 induction))?
**A.** Its EC50 is ~2.2 nM.

**Q.** What about the “Biological Activity (increase in staining intensity compared to vehicle control)” value (Human MSCs) of the same molecule?
**A.** The value was “A (>50% increase in staining intensity compared to vehicle control)”.

**Q.** What about the AUC(0-t) [2, 5] of the same molecule?
**A.** Its AUC(0-t) is 2900 ng·h/mL.

**Q.** What about the Cmax [2, 5] of the same molecule?
**A.** Its Cmax is 9190 ng/mL.

**Q.** What about the half-life [2, 5] of the same molecule?
**A.** Its half-life is 28.8 min.

**Q.** And the Cmax [2, 6]?
**A.** Its Cmax is 9020 ng/mL.

**Q.** And the half-life [2, 6]?
**A.** The half-life was 31.8 min.

**Q.** And the AUC(0-t) ([2]; female rats, single IV 2.4 mg/kg, mean, t = 4 hours)?
**A.** Its AUC(0-t) is 5690 ng·h/mL.

**Q.** And the AUC(0-t) [2, 7]?
**A.** Its AUC(0-t) is 2500 ng·h/mL.

**Q.** What about the Cmax [2, 7] of the same molecule?
**A.** Its Cmax is 11200 ng/mL.

**Q.** What about the half-life [2, 7] of the same molecule?
**A.** The half-life was 22.2 min.

**Q.** What about the AUC(0-t) [2, 8] of the same molecule?
**A.** The AUC(0-t) was 4510 ng·h/mL.

**Q.** And the Cmax [2, 8]?
**A.** Its Cmax is 9430 ng/mL.

**Q.** And the half-life [2, 8]?
**A.** The half-life was 24 min.

**Q.** What about the half-life ([2]; both sexes, single IV administration, range over groups) of the same molecule?
**A.** The half-life was 18 to 36 min.

**Q.** What about the Tlast ([2]; female rats, single IV 1 mg/kg) of the same molecule?
**A.** The Tlast was 2 h.

**Q.** And the Tlast ([2]; female rats, single IV 2.4 mg/kg)?
**A.** Its Tlast is 4 h.

**Q.** And the “mean AUC0-t, higher dose compared to 1 mg/kg” value ([2]; females, single IV)?
**A.** Its value is ~2.0 fold.

**Q.** And the Tlast ([2]; male rats, single IV 1 mg/kg)?
**A.** Its Tlast is 2 h.

**Q.** What about the Tlast ([2]; male rats, single IV 2.4 mg/kg) of the same molecule?
**A.** Its Tlast is 2 h.

**Q.** And the “mean AUC0-t, higher dose compared to 1 mg/kg” value ([2]; males, single IV)?
**A.** The value was “approximately 1.8 fold”.

**Q.** What about the “gender differences in systemic exposure (Cmax and AUC0-t)” value ([2]; single IV, either dosing regimen) of the same molecule?
**A.** The value was “no notable gender differences”.

**Q.** And the Cmax (in vivo [3])?
**A.** The Cmax was 13.8 ng/mL.

**Q.** And the “time up to which quantifiable in the plasma of all animals” value (in vivo [4]; both)?
**A.** The value was “at least 2 hours”.

**Q.** What about the AUC(0-t) (in vivo [4]; female, 70 ug/kg) of the same molecule?
**A.** The AUC(0-t) was 20.3 ng·h/mL.

**Q.** What about the Cmax (in vivo [4]; female, 70 ug/kg) of the same molecule?
**A.** The Cmax was 11.6 ng/mL.

**Q.** And the AUC(0-t) (in vivo [4]; female, 70 ug/kg, AUC0-t)?
**A.** The AUC(0-t) was 18.5 ng·h/mL.

**Q.** And the Cmax (in vivo [4]; female, 70 ug/kg, Cmax)?
**A.** Its Cmax is 19.5 ng/mL.

**Q.** And the AUC(0-t) (in vivo [4]; female, 140 ug/kg)?
**A.** The AUC(0-t) was 52.3 ng·h/mL.

**Q.** What about the Cmax (in vivo [4]; female, 140 ug/kg) of the same molecule?
**A.** The Cmax was 34.5 ng/mL.

**Q.** And the AUC(0-t) (in vivo [4]; female, 140 ug/kg, AUC0-t)?
**A.** Its AUC(0-t) is 43.5 ng·h/mL.

**Q.** And the Cmax (in vivo [4]; female, 140 ug/kg, Cmax)?
**A.** The Cmax was 42.3 ng/mL.

**Q.** And the AUC(0-t) (in vivo [4]; female, 200 ug/kg)?
**A.** The AUC(0-t) was 64.9 ng·h/mL.

**Q.** And the AUC(0-t) (in vivo [4]; female, 200 ug/kg, AUC0-t)?
**A.** Its AUC(0-t) is 39.3 ng·h/mL.

**Q.** And the Cmax (in vivo [4]; female, 200 ug/kg, Cmax)?
**A.** The Cmax was 59.8 ng/mL.

**Q.** What about the AUC(0-t) (in vivo [4]; male, 70 ug/kg) of the same molecule?
**A.** Its AUC(0-t) is 8.14 ng·h/mL.

**Q.** And the Cmax (in vivo [4]; male, 70 ug/kg)?
**A.** The Cmax was 8.41 ng/mL.

**Q.** And the AUC(0-t) (in vivo [4]; male, 70 ug/kg, AUC0-t)?
**A.** Its AUC(0-t) is 8.33 ng·h/mL.

**Q.** And the Cmax (in vivo [4]; male, 70 ug/kg, Cmax)?
**A.** Its Cmax is 8.24 ng/mL.

**Q.** And the AUC(0-t) (in vivo [4]; male, 140 ug/kg)?
**A.** Its AUC(0-t) is 18.4 ng·h/mL.

**Q.** What about the Cmax (in vivo [4]; male, 140 ug/kg) of the same molecule?
**A.** The Cmax was 18.6 ng/mL.

**Q.** And the AUC(0-t) (in vivo [4]; male, 140 ug/kg, AUC0-t)?
**A.** The AUC(0-t) was 15.4 ng·h/mL.

**Q.** And the Cmax (in vivo [4]; male, 140 ug/kg, Cmax)?
**A.** Its Cmax is 23.5 ng/mL.

**Q.** And the AUC(0-t) (in vivo [4]; male, 200 ug/kg)?
**A.** Its AUC(0-t) is 35.5 ng·h/mL.

**Q.** And the AUC(0-t) (in vivo [4]; male, 200 ug/kg, AUC0-t)?
**A.** The AUC(0-t) was 22.9 ng·h/mL.

**Q.** And the Cmax (in vivo [4]; male, 200 ug/kg, Cmax)?
**A.** The Cmax was 33.9 ng/mL.
